Results published in US20080207643A1, “Composition for Treating Hyperlipaemia” (priority 2004, published 2008).

Key:
hyperlipemia model rats = test: Effects on the activity of seroenzyme (alanine transaminase, creatine kinase) in the model rats; conditions: for Alanine transaminase / Creatine kinase: serum of model rats, gavage 14 days
Method: Hyperlipemia rat model was established by inducing hyperlipemia with high lipid containing feed. The formulation of high lipid containing feed was as follows: basic feed 86.3%, cholesterol 3%, lard 10%, methylthiouracil 0.2% and porcine bile salt 0.5%, and were allowed to be mixed uniformly. The rats were continuously fed for 2 weeks. During the administration of drugs, high lipid containing feed was administered every other day.
The serum bio-chemical index includes total cholesterol (TC), alanine transaminase (ALT), creatine kinase (CK), triglyceride (TG), low density lipoprotein-cholesterol (LDL-C), high density lipoprotein-cholesterol (LDL-C). The reagents for measuring alanine transaminase (ALT) and creatine kinase (CK) were produced by Beijing Zhongsheng High-Tech Bioengineering Company, and SABA/18 Automatic Biochemical Analyzer was used for measurement. Other reagents were produced by Roche Inc., Japan, and Hitachi 7020 Automatic Biochemical Analyzer was used for measurement. The measuring methods are based on the specifications of the reagents, and the rats were fasted for 16 hours before collecting blood.
The administering route intended for the clinical application is oral administration, and thus gavage administration was used in the present experiment for continuous 14 days. Gavage administration was conducted on the rats after feeding, once per day. The dosing volume is 0.3 ml/100 g of body weight.

[1] = cited from earlier work
hyperlipemia rat model [2] = test: Comparison of the different formulations of acipimox in combination with atorvastatin calcium on hyperlipemia of rats; format: in vivo, Wistar rats; conditions: comparison test, gavage 14 days
From the text: The level of serum total cholesterol level was respectively measured before grouping, and then randomly grouping by following the balance principle. Each group included 10 rats.

normal rats = test: Effects on the blood lipid level in the normal rats; format: in vivo, Wistar rats; conditions: gavage 4 days
Method: Wistar rats, bred by the Medical Experimental Animal Centre of Chinese Academy of Military Medical Sciences, certificate No. […] By calculating in accordance with the principle of dosage equivalent per body surface area, the above mentioned generally used dosage for human was converted into the dosage for rats of about 50 mg/kg/day. […] By calculating in accordance with the principle of dosage equivalent per body surface area, the above mentioned generally used dosage for human was converted into the dosage for rats of about 0.85 mg/kg/day.

hyperlipemia rat model [3] = test: Effects on the blood lipid level in hyperlipemia model rats (high lipid containing feed); format: in vivo, Wistar rats; conditions: gavage 14 days
From the text: Each group included 10 rats. […] The measurement is the same as the experiment conducted on normal rats as described in section 5.4.

hyperlipemia patients = conditions: 80 mg/d, 22 hyperlipemia patients; cited from earlier work

Cc1cnc(C(=O)O)c[n+]1[O-] [Acipimox, acipimox]
levels of alanine transaminase and creatine kinase in serum in comparison with the model control group (hyperlipemia model rats; model rats, 14 days, acipimox 100 to 400 mg/kg, P>0.05): not remarkably different
Alanine transaminase (hyperlipemia model rats; acipimox 100 mg/kg): 640.3 ± 117.6 nmol/s/L
Creatine kinase (hyperlipemia model rats; acipimox 100 mg/kg): 361.4 ± 106.4 U/L
Alanine transaminase (hyperlipemia model rats; acipimox 200 mg/kg): 645.4 ± 124.9 nmol/s/L
Creatine kinase (hyperlipemia model rats; acipimox 200 mg/kg): 354.4 ± 110.9 U/L
Alanine transaminase (hyperlipemia model rats; acipimox 300 mg/kg): 655.5 ± 110.5 nmol/s/L
Creatine kinase (hyperlipemia model rats; acipimox 300 mg/kg): 380.33 ± 120.1 U/L
Alanine transaminase (hyperlipemia model rats; acipimox 400 mg/kg): 642.8 ± 114.2 nmol/s/L
Creatine kinase (hyperlipemia model rats; acipimox 400 mg/kg): 377.3 ± 103.4 U/L
combination with plasma protein ([1]; in vivo): does not combine with plasma protein
excretion and metabolism ([1]; in vivo): excreted mainly in the form of Acipimox itself, without being metabolized
half life ([1]; oral administration): 2 h
time to the peak of plasma concentration after administration ([1]; oral administration): ≤ 2 h
High density lipoprotein-cholesterol (hyperlipemia rat model [2]; acipimox 200 mg/kg): 4.20 ± 1.10 mmol/L
Low density lipoprotein-cholesterol (hyperlipemia rat model [2]; acipimox 200 mg/kg): 7.27 ± 1.83 mmol/L
Total cholesterol in serum (hyperlipemia rat model [2]; acipimox 200 mg/kg): 10.31 ± 1.67 mmol/L
Triglyceride in serum (hyperlipemia rat model [2]; acipimox 200 mg/kg): 1.79 ± 0.63 mmol/L
High density lipoprotein-cholesterol (hyperlipemia rat model [2]; acipimox 300 mg/kg): 4.54 ± 0.52 mmol/L
Low density lipoprotein-cholesterol (hyperlipemia rat model [2]; acipimox 300 mg/kg): 6.96 ± 1.23 mmol/L
Total cholesterol in serum (hyperlipemia rat model [2]; acipimox 300 mg/kg): 8.69 ± 1.88 mmol/L
Triglyceride in serum (hyperlipemia rat model [2]; acipimox 300 mg/kg): 1.68 ± 0.56 mmol/L
High density lipoprotein-cholesterol (normal rats; acipimox 100 mg/kg): 0.97 ± 0.16 mmol/L
Low density lipoprotein-cholesterol (normal rats; acipimox 100 mg/kg): 0.32 ± 0.12 mmol/L
Total cholesterol in serum (normal rats; acipimox 100 mg/kg): 1.60 ± 0.35 mmol/L
Triglyceride in serum (normal rats; acipimox 100 mg/kg): 0.71 ± 0.27 mmol/L
High density lipoprotein-cholesterol (normal rats; acipimox 200 mg/kg): 0.98 ± 0.23 mmol/L
Low density lipoprotein-cholesterol (normal rats; acipimox 200 mg/kg): 0.26 ± 0.11 mmol/L
Total cholesterol in serum (normal rats; acipimox 200 mg/kg): 1.55 ± 0.28 mmol/L
Triglyceride in serum (normal rats; acipimox 200 mg/kg): 0.69 ± 0.33 mmol/L
High density lipoprotein-cholesterol (normal rats; acipimox 300 mg/kg): 1.15 ± 0.26 mmol/L
Low density lipoprotein-cholesterol (normal rats; acipimox 300 mg/kg): 0.29 ± 0.11 mmol/L
Total cholesterol in serum (normal rats; acipimox 300 mg/kg): 1.51 ± 0.26 mmol/L
Triglyceride in serum (normal rats; acipimox 300 mg/kg): 0.63 ± 0.28 mmol/L
High density lipoprotein-cholesterol (normal rats; acipimox 400 mg/kg): 1.18 ± 0.13 mmol/L
Low density lipoprotein-cholesterol (normal rats; acipimox 400 mg/kg): 0.24 ± 0.14 mmol/L
Total cholesterol in serum (normal rats; acipimox 400 mg/kg): 1.49 ± 0.28 mmol/L
Triglyceride in serum (normal rats; acipimox 400 mg/kg): 0.57 ± 0.36 mmol/L
High density lipoprotein-cholesterol (hyperlipemia rat model [3]; acipimox 100 mg/kg): 3.95 ± 0.63 mmol/L
Low density lipoprotein-cholesterol (hyperlipemia rat model [3]; acipimox 100 mg/kg): 8.44 ± 1.06 mmol/L
Total cholesterol in serum (hyperlipemia rat model [3]; acipimox 100 mg/kg): 13.18 ± 2.31 mmol/L
Triglyceride in serum (hyperlipemia rat model [3]; acipimox 100 mg/kg): 1.98 ± 0.42 mmol/L
High density lipoprotein-cholesterol (hyperlipemia rat model [3]; acipimox 200 mg/kg): 4.35 ± 0.55 mmol/L
Low density lipoprotein-cholesterol (hyperlipemia rat model [3]; acipimox 200 mg/kg): 8.23 ± 0.40 mmol/L
Total cholesterol in serum (hyperlipemia rat model [3]; acipimox 200 mg/kg): 10.82 ± 3.05 mmol/L
Triglyceride in serum (hyperlipemia rat model [3]; acipimox 200 mg/kg): 1.78 ± 0.55 mmol/L
High density lipoprotein-cholesterol (hyperlipemia rat model [3]; acipimox 300 mg/kg): 4.56 ± 0.50 mmol/L
Low density lipoprotein-cholesterol (hyperlipemia rat model [3]; acipimox 300 mg/kg): 7.79 ± 0.89 mmol/L
Total cholesterol in serum (hyperlipemia rat model [3]; acipimox 300 mg/kg): 10.73 ± 2.36 mmol/L
Triglyceride in serum (hyperlipemia rat model [3]; acipimox 300 mg/kg): 1.69 ± 0.51 mmol/L
High density lipoprotein-cholesterol (hyperlipemia rat model [3]; acipimox 400 mg/kg): 4.70 ± 0.58 mmol/L
Low density lipoprotein-cholesterol (hyperlipemia rat model [3]; acipimox 400 mg/kg): 7.65 ± 0.40 mmol/L
Total cholesterol in serum (hyperlipemia rat model [3]; acipimox 400 mg/kg): 11.18 ± 2.47 mmol/L
Triglyceride in serum (hyperlipemia rat model [3]; acipimox 400 mg/kg): 1.72 ± 0.54 mmol/L

CC(C)c1c(C(=O)Nc2ccccc2)c(-c2ccccc2)c(-c2ccc(F)cc2)n1CC[C@@H](O)C[C@@H](O)CC(=O)O [Atorvastatin calcium, calcium [R-(R′,R′)]2-(4-fluorophenyl)-βδ-dihydroxyl-5-(1-methylethyl)-3-phenyl-4-[aniline]carbonyl]-1-hydro-pyrrolyl-1-heptanoate trihydrate]
decreases the activity of coagulation factor VII (hyperlipemia patients): 8%
decreases the coagulation rate of platelet induced by thromboxane A2 (TXA2) (hyperlipemia patients): 11%
Total cholesterol in serum (hyperlipemia rat model [2]; atorvastatin calcium 10 mg/kg): 10.20 ± 1.62 mmol/L
Triglyceride in serum (hyperlipemia rat model [2]; atorvastatin calcium 10 mg/kg): 1.56 ± 0.62 mmol/L
Total cholesterol in serum (hyperlipemia rat model [2]; atorvastatin calcium 20 mg/kg): 9.65 ± 2.22 mmol/L
Triglyceride in serum (hyperlipemia rat model [2]; atorvastatin calcium 20 mg/kg): 1.47 ± 0.56 mmol/L
Total cholesterol in serum (normal rats; atorvastatin calcium 5 mg/kg): 1.64 ± 0.30 mmol/L
Triglyceride in serum (normal rats; atorvastatin calcium 5 mg/kg): 0.67 ± 0.28 mmol/L
Total cholesterol in serum (normal rats; atorvastatin calcium 10 mg/kg): 1.52 ± 0.31 mmol/L
Triglyceride in serum (normal rats; atorvastatin calcium 10 mg/kg): 0.65 ± 0.33 mmol/L
Total cholesterol in serum (normal rats; atorvastatin calcium 20 mg/kg): 1.46 ± 0.24 mmol/L
Triglyceride in serum (normal rats; atorvastatin calcium 20 mg/kg): 0.55 ± 0.16 mmol/L
Total cholesterol in serum (normal rats; atorvastatin calcium 30 mg/kg): 1.41 ± 0.29 mmol/L
Triglyceride in serum (normal rats; atorvastatin calcium 30 mg/kg): 0.51 ± 0.18 mmol/L
Total cholesterol in serum (hyperlipemia rat model [3]; atorvastatin calcium 5 mg/kg): 12.45 ± 2.67 mmol/L
Triglyceride in serum (hyperlipemia rat model [3]; atorvastatin calcium 5 mg/kg): 1.93 ± 0.52 mmol/L
Total cholesterol in serum (hyperlipemia rat model [3]; atorvastatin calcium 10 mg/kg): 11.23 ± 2.12 mmol/L
Triglyceride in serum (hyperlipemia rat model [3]; atorvastatin calcium 10 mg/kg): 1.80 ± 0.28 mmol/L
Total cholesterol in serum (hyperlipemia rat model [3]; atorvastatin calcium 20 mg/kg): 10.27 ± 2.67 mmol/L
Triglyceride in serum (hyperlipemia rat model [3]; atorvastatin calcium 20 mg/kg): 1.72 ± 0.47 mmol/L
Total cholesterol in serum (hyperlipemia rat model [3]; atorvastatin calcium 30 mg/kg): 9.91 ± 2.65 mmol/L
Triglyceride in serum (hyperlipemia rat model [3]; atorvastatin calcium 30 mg/kg): 1.78 ± 0.55 mmol/L
